Experimental data published in publication PMC9405123, “Design, Synthesis and Mechanistic Studies of Novel Isatin-Pyrazole Hydrazone Conjugates as Selective and Potent Bacterial MetAP Inhibitors” (Antibiotics, 2022).
Values after ≈ are worked out from the molar mass of the structure shown. Like-named read-outs stand apart in the source and are kept apart here.

Legend:
S. aureus [1] = experiment: Growth inhibition screening (broth dilution); assay type: cell-based, Staphylococcus aureus; settings: for inhibition at 250 µg/mL: Staphylococcus aureus
Protocol: (§1) In vitro screening of the compounds (PS1–14) was performed to assess the antibacterial activity against three Gram-positive (Staphylococcus aureus, Enterococcus faecalis and Bacillus subtilis,) and three Gram-negative (Pseudomonas aeruginosa, Klebsiella pneumonia and Escherichia coli) bacterial strains using the standard NCCLS broth dilution assay. The study’s standard drugs were ciprofloxacin (CIP) and ampicillin (AMP). Compounds were dissolved in a polar solvent (DMSO) and distributed into a 96-well plate in 200 µL of nutrient broth medium, with a final concentration of the compounds […] in each well. The bacterial cells (about 2.5 × 10^5 cells/mL) were inoculated into each well and incubated at 37 °C overnight. After incubation, the growth was measured by turbidity of the culture at 590 nm by spectrophotometer.

SpMetAP1a = SpMetAP1a (Streptococcus pneumoniae, UniProt Q8DPV1); experiment: MetAP enzyme inhibition, Morrison Ki (Met-AMC fluorescence); assay type: biochemical; settings: Morrison Ki method
SpMetAP1a, sequence (Q8DPV1 entry or part of it): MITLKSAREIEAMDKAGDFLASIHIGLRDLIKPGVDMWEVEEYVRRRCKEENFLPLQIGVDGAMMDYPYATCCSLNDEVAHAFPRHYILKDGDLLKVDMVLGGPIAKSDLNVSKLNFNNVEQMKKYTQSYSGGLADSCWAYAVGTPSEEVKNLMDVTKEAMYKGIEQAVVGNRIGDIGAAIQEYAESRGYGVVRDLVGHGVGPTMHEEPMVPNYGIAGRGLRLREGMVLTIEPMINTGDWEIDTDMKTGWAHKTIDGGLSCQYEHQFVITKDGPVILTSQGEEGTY

B. subtilis [2] = experiment: Minimum inhibitory concentration (broth dilution); assay type: cell-based; settings: Bacillus subtilis, alone
E. faecalis [3] = experiment: Growth inhibition screening (broth dilution); assay type: cell-based, Enterococcus faecalis; settings: for inhibition at 250 µg/mL: Enterococcus faecalis
Protocol: as §1

E. faecalis [4] = experiment: Minimum bactericidal concentration; assay type: cell-based, Enterococcus faecalis; settings: for MBC: Enterococcus faecalis
E. faecalis [5] = experiment: Minimum inhibitory concentration (broth dilution); assay type: cell-based; settings: Enterococcus faecalis, alone
EfMetAP1a = EfMetAP1a (Enterococcus faecalis, UniProt Q832M5); experiment: MetAP enzyme inhibition, Morrison Ki (Met-AMC fluorescence); assay type: biochemical; settings: Morrison Ki method
EfMetAP1a, sequence (Q832M5 entry or part of it): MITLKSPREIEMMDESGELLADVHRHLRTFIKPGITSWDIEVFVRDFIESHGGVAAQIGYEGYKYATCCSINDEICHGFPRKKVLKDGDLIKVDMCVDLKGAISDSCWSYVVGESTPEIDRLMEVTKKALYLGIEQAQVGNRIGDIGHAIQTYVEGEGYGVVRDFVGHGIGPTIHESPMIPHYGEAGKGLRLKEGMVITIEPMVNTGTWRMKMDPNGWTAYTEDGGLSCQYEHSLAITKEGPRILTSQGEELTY

K. pneumoniae [6] = experiment: Minimum bactericidal concentration; assay type: cell-based, Klebsiella pneumonia; settings: for MBC: Klebsiella pneumoniae
S. aureus [7] = experiment: Combination study with AMP or CIP
HsMetAP1b = biological target: T1, HsMetAP1b (Homo sapiens, UniProt P53582); experiment: MetAP enzyme inhibition, Morrison Ki (Met-AMC fluorescence); assay type: biochemical, H. sapiens; settings: Morrison Ki method
T1 construct: made in house

E. faecalis [8] = experiment: Combination study with AMP or CIP
E. coli [9] = experiment: Growth inhibition screening (broth dilution); assay type: cell-based, Escherichia coli
Protocol: as §1

E. coli [10] = experiment: Minimum bactericidal concentration; assay type: cell-based, Escherichia coli; settings: for MBC: Escherichia coli
B. subtilis [11] = experiment: Minimum bactericidal concentration; assay type: cell-based, Bacillus subtilis; settings: for MBC: Bacillus subtilis
S. aureus [12] = experiment: Minimum bactericidal concentration; assay type: cell-based, Staphylococcus aureus; settings: for MBC: Staphylococcus aureus
P. aeruginosa [13] = experiment: Growth inhibition screening (broth dilution); assay type: cell-based, Pseudomonas aeruginosa
Protocol: as §1

K. pneumoniae [14] = experiment: Growth inhibition screening (broth dilution); assay type: cell-based, Klebsiella pneumonia; settings: for inhibition at 250 µg/mL: Klebsiella pneumoniae
Protocol: as §1

K. pneumoniae [15] = experiment: Minimum inhibitory concentration (broth dilution); assay type: cell-based, Klebsiella pneumonia; settings: Klebsiella pneumoniae, alone, read-out: MIC
B. subtilis [16] = experiment: Combination study with AMP or CIP
E. coli [17] = experiment: Minimum inhibitory concentration (broth dilution); assay type: cell-based, Escherichia coli; settings: Escherichia coli, alone, read-out: MIC
MtMetAP1c = biological target: T2, MtMetAP1c (Mycobacterium tuberculosis, UniProt P9WK19); experiment: MetAP enzyme inhibition, Morrison Ki (Met-AMC fluorescence); assay type: biochemical, M. tuberculosis; settings: Morrison Ki method
T2 construct: made in house
T2 sequence (P9WK19 whole entry): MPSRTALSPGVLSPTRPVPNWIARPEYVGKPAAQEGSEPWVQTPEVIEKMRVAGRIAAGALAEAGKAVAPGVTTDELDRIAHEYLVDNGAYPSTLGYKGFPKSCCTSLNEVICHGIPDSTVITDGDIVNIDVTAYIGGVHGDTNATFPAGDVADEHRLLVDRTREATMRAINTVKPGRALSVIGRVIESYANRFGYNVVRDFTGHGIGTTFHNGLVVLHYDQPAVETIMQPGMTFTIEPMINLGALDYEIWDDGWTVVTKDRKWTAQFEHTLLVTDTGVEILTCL
Protocol: MetAP appears to serve a vital role in the co- or post-translational modification of proteins, making it essential for bacterial cell metabolism and survival. In this study, all enzymes, which were used for this study, including MtMetAP1c (M. tuberculosis), EfMetAP1a (E. faecalis), SpMetAP1a (S. pneumoniae) and HsMetAP1b (H. sapiens) enzymes, were expressed and purified in our lab as previously reported. All compounds prepared 10 mM stocks in DMSO and were used for enzyme inhibition studies. The concentration of each enzyme is adjusted such that they have similar reaction rates (HsMetAp1b, 1 µM; SpMetAP1a, 5 µM; EfMetAP1a, 1 µM; MtMetAP1c, 1 µM;) as reported earlier. All assays were performed in […] reaction containing 50 mM HEPES (pH 7.5 for SpMetAP1a and HsMetAP1b; 8.0 for EfMetAP1a, MtMetAP1c, […]), 150 mM NaCl, and CoCl2 (three molar equivalents of corresponding enzymes). The reaction was started by adding 50 μM L-Methionine 7-amido-4-methyl coumarin (Met-AMC) and continuously monitoring the fluorescence of released 7-amino-4-methyl coumarin (AMC) (380 nm excitation and 460 nm emission) in a microplate multimode reader (TECAN, Austria). The maximum percentage of inhibition against enzymes is calculated at […] compound concentration. […] The Ki values were determined according to the Morrison method using three different concentrations of substrates and ten different concentrations of the inhibitor. All experiments were performed in triplicate. GraphPad Prism version 8.0.0 (San Diego, CA, USA) was used to determine all the kinetic parameters.

K. pneumoniae [18] = experiment: Combination study with AMP or CIP
B. subtilis [19] = experiment: Growth inhibition screening (broth dilution); assay type: cell-based, Bacillus subtilis
Protocol: as §1

P. aeruginosa [20] = experiment: Minimum bactericidal concentration; assay type: cell-based, Pseudomonas aeruginosa; settings: for MBC: Pseudomonas aeruginosa
P. aeruginosa [21] = experiment: Combination study with AMP or CIP
P. aeruginosa [22] = experiment: Minimum inhibitory concentration (broth dilution); assay type: cell-based; settings: Pseudomonas aeruginosa, alone
S. aureus [23] = experiment: Minimum inhibitory concentration (broth dilution); assay type: cell-based; settings: Staphylococcus aureus, alone
E. coli [24] = experiment: Combination study with AMP or CIP

## O=C1Nc2cc(Cl)c(F)cc2/C1=N\NC(=O)c1cc(-c2cccc(Br)c2)n[nH]1 [PS6, (E)-3-(3-Bromophenyl)-N′-(6-Chloro-5-Fluoro-2-Oxoindolin-3-Ylidene)-1H-Pyrazole-5-Carbohydrazide]
S. aureus [1]
  inhibition at 250 µg/mL: 61%
SpMetAP1a
  Ki: 2550 ± 110 nM
B. subtilis [2]
  MIC: 8 µg/mL (≈ 17.3 µM)
E. faecalis [3]
  inhibition at 250 µg/mL: > 70%
E. faecalis [3]; listed as C00006
  % Growth Inhibition at 250 µg/mL: 73%
E. faecalis [4]
  MBC/MIC Ratio (R*): 2
  MBC: 32 µg/mL (≈ 69.2 µM)
E. faecalis [5]
  MIC: 16 µg/mL (≈ 34.6 µM)
EfMetAP1a
  Ki: 1650 ± 310 nM
K. pneumoniae [6]
  MBC/MIC Ratio (R*): 2
  MBC: 128 µg/mL (≈ 277 µM)
S. aureus [7]; combination PS6 + AMP
  MIC in Combination: 1 µg/mL
S. aureus [7]; combination PS6 + CIP
  MIC in Combination: 8 µg/mL
S. aureus [7]; combination with AMP
  FICI: 0.31
S. aureus [7]; combination with CIP
  FICI: 1
  Mode of Interaction: Indifferent (in between 0.5 and 4)
HsMetAP1b
  Ki: 172000 ± 4800 nM
E. faecalis [8]; combination PS6 + AMP
  MIC in Combination: 1 µg/mL
E. faecalis [8]; combination PS6 + CIP
  MIC in Combination: 4 µg/mL
E. faecalis [8]; combination with AMP
  FICI: 0.09
E. faecalis [8]; combination with CIP
  FICI: 0.31
E. coli [9]
  % Growth Inhibition at 250 µg/mL: more than 70%
E. coli [9]; listed as C00006
  % Growth Inhibition at 250 µg/mL: 97%
E. coli [10]
  MBC/MIC Ratio (R*): 8
  MBC: 256 µg/mL (≈ 553 µM)
B. subtilis [11]
  MBC/MIC Ratio (R*): 2
  MBC: 16 µg/mL (≈ 34.6 µM)
S. aureus [12]
  MBC/MIC Ratio (R*): 32
  MBC: 512 µg/mL (≈ 1110 µM)
P. aeruginosa [13]
  % Growth Inhibition at 250 µg/mL: more than 70%
P. aeruginosa [13]; listed as C00006
  % Growth Inhibition at 250 µg/mL: 100%
K. pneumoniae [14]
  inhibition at 250 µg/mL: > 70%
K. pneumoniae [14]; listed as C00006
  % Growth Inhibition at 250 µg/mL: 80%
K. pneumoniae [15]
  MIC: 64 µg/mL (≈ 138 µM)
B. subtilis [16]; combination PS6 + AMP
  MIC in Combination: 2 µg/mL
B. subtilis [16]; combination PS6 + CIP
  MIC in Combination: 8 µg/mL
B. subtilis [16]; combination with AMP
  FICI: 0.75
B. subtilis [16]; combination with CIP
  FICI: 1.06
  Mode of Interaction: Indifferent (in between 0.5 and 4)
E. coli [17]
  MIC: 32 µg/mL (≈ 69.2 µM)
MtMetAP1c
  Ki: 740 ± 60 nM
K. pneumoniae [18]; combination PS6 + AMP
  MIC in Combination: 4 µg/mL
K. pneumoniae [18]; combination PS6 + CIP
  MIC in Combination: 8 µg/mL
K. pneumoniae [18]; combination with AMP
  FICI: 0.18
K. pneumoniae [18]; combination with CIP
  FICI: 0.62
  Mode of Interaction: Indifferent (in between 0.5 and 4)
B. subtilis [19]
  % Growth Inhibition at 250 µg/mL: more than 70%
B. subtilis [19]; listed as C00006
  % Growth Inhibition at 250 µg/mL: 100%
P. aeruginosa [20]
  MBC/MIC Ratio (R*): 8
  MBC: 256 µg/mL (≈ 553 µM)
P. aeruginosa [21]; combination PS6 + AMP
  MIC in Combination: 4 µg/mL
P. aeruginosa [21]; combination PS6 + CIP
  MIC in Combination: 4 µg/mL
P. aeruginosa [21]; combination with AMP
  FICI: 0.25
P. aeruginosa [21]; combination with CIP
  FICI: 0.25
  Mode of Interaction: Synergistic (FICI value is less than or equal to 0.5)
P. aeruginosa [22]
  MIC: 32 µg/mL (≈ 69.2 µM)
other
  melting point: 191 to 194 °C
S. aureus [23]
  MIC: 16 µg/mL (≈ 34.6 µM)
E. coli [24]; combination PS6 + AMP
  MIC in Combination: 4 µg/mL
E. coli [24]; combination PS6 + CIP
  MIC in Combination: 8 µg/mL
E. coli [24]; combination with AMP
  FICI: 0.25
E. coli [24]; combination with CIP
  FICI: 0.31

## COc1ccc2c(c1)/C(=N\NC(=O)c1cc(-c3cccc(Br)c3)n[nH]1)C(=O)N2 [PS11, (E)-3-(3-Bromophenyl)-N′-(5-Methoxy-2-Oxoindolin-3-Ylidene)-1H-Pyrazole-5-Carbohydrazide]
S. aureus [1]
  inhibition at 250 µg/mL: ≥ 94%
S. aureus [1]; listed as C00011
  % Growth Inhibition at 250 µg/mL: 98%
SpMetAP1a
  Ki: 1360 ± 170 nM
B. subtilis [2]
  MIC: > 256 µg/mL
E. faecalis [3]
  inhibition at 250 µg/mL: ≥ 94%
E. faecalis [3]; listed as C00011
  % Growth Inhibition at 250 µg/mL: 100%
E. faecalis [4]
  MBC/MIC Ratio (R*): 1
  MBC: 32 µg/mL (≈ 72.7 µM)
E. faecalis [5]
  MIC: 32 µg/mL (≈ 72.7 µM)
EfMetAP1a
  Ki: 2490 ± 310 nM
K. pneumoniae [6]
  MBC/MIC Ratio (R*): 1
  MBC: 32 µg/mL (≈ 72.7 µM)
HsMetAP1b
  Ki: 15200 ± 3200 nM
E. coli [9]; Escherichia coli
  inhibition at 250 µg/mL: ≥ 94%
E. coli [9]; listed as C00011
  % Growth Inhibition at 250 µg/mL: 97%
E. coli [10]
  MBC/MIC Ratio (R*): 2
  MBC: 256 µg/mL (≈ 581 µM)
B. subtilis [11]
  MBC/MIC Ratio (R*): 2
  MBC: 512 µg/mL (≈ 1160 µM)
S. aureus [12]
  MBC/MIC Ratio (R*): >4
  MBC: > 512 µg/mL
P. aeruginosa [13]; Pseudomonas aeruginosa
  inhibition at 250 µg/mL: ≥ 94%
P. aeruginosa [13]; listed as C00011
  % Growth Inhibition at 250 µg/mL: 96%
K. pneumoniae [14]
  inhibition at 250 µg/mL: ≥ 94%
K. pneumoniae [14]; listed as C00011
  % Growth Inhibition at 250 µg/mL: 95%
K. pneumoniae [15]
  MIC: 32 µg/mL (≈ 72.7 µM)
E. coli [17]
  MIC: 128 µg/mL (≈ 291 µM)
MtMetAP1c
  Ki: 1610 ± 250 nM
B. subtilis [19]; Bacillus subtilis
  inhibition at 250 µg/mL: ≥ 94%
B. subtilis [19]; listed as C00011
  % Growth Inhibition at 250 µg/mL: 100%
P. aeruginosa [20]
  MBC/MIC Ratio (R*): 4
  MBC: 128 µg/mL (≈ 291 µM)
P. aeruginosa [22]
  MIC: 32 µg/mL (≈ 72.7 µM)
other
  melting point: 245 to 248 °C
S. aureus [23]
  MIC: 128 µg/mL (≈ 291 µM)
